From patent US20190070128A1, “USE OF CANNABIDIVARIN IN THE TREATMENT OF AUTISM SPECTRUM DISORDER, ASSOCIATED DISORDERS AND SCHIZOPHRENIA” (GW Research Limited, priority 2016, published 2019)

Columns and labels:
VPA-exposed rats = assay: short-term memory, novel object recognition test, prenatal VPA model; type: in vivo, rat
Description: Pregnant Sprague-Dawley rats (Charles River, Calco, Italy), received a single intraperitoneal injection of 500 mg/kg sodium valproate on the 12.5 day after conception, and control females were injected with physiological saline at the same time. Sodium valproate (Sigma Aldrich, Milan, IT) was dissolved in saline at a concentration of 250 mg/ml.
CBDV was dissolved in ethanol, cremophor and saline (1:1:18). Symptomatic treatment with CBDV at doses of 0.2, 2, 20, and 100 mg/kg/day i.p. was performed starting from PND 34 (early adolescence) till 56 (early adulthood), both in male and female offspring of dams injected with VPA 500 mg/kg (or vehicle) on day 12.5 after conception. […]
Short-term memory: The experimental apparatus used for the object recognition test was an open-field box (43×43×32 cm) made of Plexiglas, placed in a dimly illuminated room. The experiment was performed and analysed as previously described (Zamberletti et al, 2014). […]
Each animal was placed in the arena and allowed to explore two identical previously unseen objects for 5 minutes (familiarization phase). […] During the test phase the time spent exploring the familiar object (Ef) and the new object (En) was videotaped and recorded separately by two observers blind to the treatment groups and the discrimination index was calculated as follows: [(En−Ef)/(En+Ef)]×100.

[1] = system: neuroinflammatory markers (GFAP, CD11b, TNF-α); assay: neuroinflammation studies, hippocampus, Western blotting, prenatal VPA model; type: in vivo, rat
Description: At the end of the study, on PND 59, male rats treated with CBDV 20 mg/kg i.p. were sacrificed and the hippocampus was collected 24 hours after the last CBDV injection and stored at −80° C. for evaluation of changes in protein expression of components of the endocannabinoid system (CB1 and CB2 receptors, the endocannabinoid degrading enzymes, FAAH and MAGL and the synthetic enzymes, DAGLα and NAPE-PLD); neuroinflammatory markers (GFAP (astrocytic marker), Iba1 (microglial marker), CD11 b (activated microglial marker), TNF-α (proinflammatory cytokine) and iNOS (inflammatory mediator)); synaptic markers (Synaptophysin (synaptic vesicle protein), PSD-95 (post synaptic density protein) and the neurotrophins, BDNF and IGF by Western blotting.

PCP-treated rats = assay: social interaction test in sub-chronic PCP treated rats; type: in vivo, rat
Description: Female hooded-Lister rats were used for this experiment. Rats were housed in groups of 5 under standard laboratory conditions under a 12 hr light: dark cycle, lights on at 0700 hr. Testing was carried out in the light phase.
Rats were randomly assigned to two treatment groups and treated with vehicle, n=20 (distilled water, i.p.) or Phencyclidine hydrochloride (PCP), n=100 (2 mg/kg, i.p. twice daily for 7-days). PCP was dissolved in distilled water. This was followed by a 7-day wash out period before the rats were tested following acute treatment with CBDV, risperidone or vehicle.
Risperidone (0.1 mg/kg) was dissolved in a minimum volume of acetic acid, made up to volume with distilled water and pH adjusted to 6 with 0.1M NaOH and administered via the i.p. route in a volume of 1 ml/kg, 60 min prior to testing.
CBDV at 2, 10 or 20 mg/kg was dissolved in 2:1:17 (Ethanol:Cremofor:Saline 0.9%) and administered via the i.p. route in a volume of 5 ml/kg, 60 min prior to testing.
The social interaction test is performed in an open-field comprising a square box made of Plexiglas (52×52×31 cm) placed 27 cm above the floor on a moveable trolley. The floor of the box is white with black gridlines forming 9 identical squares on it. All other walls are black. A video camera connected to a video recorder and monitor is positioned above the box. The object used for the test consists of a heavy structure made of metal that cannot be displaced by the animals.
The rats were habituated to the test environment and arena prior to the test day. Habituation consists of placing all rats from one cage together in the empty test arena for one hour for three days including the day before the test day.
Pairs of rats, weight matched (15-20 g) and unfamiliar to each other, receiving either no treatment (n=70 “conspecific” rats) or different treatments (PCP and Vehicle; n=10 “tested” rats or PCP+Drug; n=50 “tested” rats) were placed in the test arena together for 10 min and behaviour assessed as described below.
An inanimate object such as an unopened drinks can is also placed in the centre of the arena to measure any differences in interaction of the test animal with an unfamiliar animal as opposed to an unfamiliar object. After each 10 minute trial, the object and arena are cleaned with 10% alcohol in an attempt to remove traces of any olfactory cues. All testing is carried out under standard room illumination levels (70 cd/m2).
Behaviour in both trials was recorded on video for subsequent blind scoring. A behavioural scoring software program (Hindsight, Scientific programming services) is used to score the following parameters: • Investigative sniffing behaviour: sniffing the conspecific's snout or parts of the body including the anogenital region; • Following: rat moves after the conspecific i.e. a vehicle treated rat of the same species, around the arena; • Avoidances: actively turning away when approached by the conspecific animal; • Investigation of object: exploration of object placed in centre of the arena; and • Locomotor activity is recorded by counting the total number of sectors (i.e. lines) crossed by the test rat.

Ube3am-/p+ (AS) mice = assay: tail suspension test in Angelman syndrome mice; type: in vivo, mouse; details: 20 mg/kg i.p., vs AS vehicle
Description: Heterozygous mice with maternal deficiency of Ube3A (Ube3am−/p+) and wild type (Ube3am+/p+) were purchased from The Jackson Laboratory (Jackson code: B6.12957-Ube3a tm1Alb/J) and maintained in a C57BL/6 background.
Drugs were dissolved in 1:1:18 ethanol:cremophor:0.9% saline, for intraperitoneal (i.p.) administration. Drug treatment was performed daily for 35 days. CBDV was administered at 20 mg/kg.
Tail suspension: The tail suspension test assesses depressive-like behaviour in mice. Mice were individually suspended by the tail on a horizontal bar (50 cm from floor) using adhesive tape placed approximately 4 cm from the tip of the tail. The duration of immobility was recorded in seconds over a period of 6 minutes by a time recorder. Immobility time was defined as the absence of escape-oriented behaviour.

## C=C(C)[C@@H]1CCC(C)=C[C@H]1c1c(O)cc(CCC)cc1O [CBDV, Cannabidivarin]
VPA-exposed rats; male and female VPA rats, 2, 20 and 100 mg/kg
  short-term memory deficit (discrimination index): completely and significantly reversed
VPA-exposed rats; vehicle-treated (non VPA) rats
  recognition memory per se: without affecting
[1]; VPA-exposed male rats, chronic CBDV 20 mg/kg i.p.
  expression of increased inflammatory markers (GFAP, CD11b, TNFα) in hippocampus: completely normalised
[1]; control rats, chronic CBDV
  expression of inflammatory markers in hippocampus: no effect
PCP-treated rats
  PCP effects on social interaction (sniffing, following, avoiding): reverse these effects in a statistically significant manner
PCP-treated rats; CBDV 20 mg/kg
  time spent avoiding the other rat: reduce
  time spent following the other rat: increased
PCP-treated rats; CBDV 10 and 20 mg/kg
  time spent sniffing the other rat: significantly increased
Ube3am-/p+ (AS) mice
  duration of immobility time: significantly reduced
